Assay results reported in PMC5889666 (Proceedings of the National Academy of Sciences of the …, 2018).

Legend:
PlsB = target: T1, PlsB (Escherichia coli, UniProt P0A7A7); experiment: in vitro lyso-phosphatidic acid synthesis, product by LC-MS; format: biochemical; conditions: co-substrate acyl-CoA made from oleic acid and CoA by FadD
T1 sequence (P0A7A7 2-807): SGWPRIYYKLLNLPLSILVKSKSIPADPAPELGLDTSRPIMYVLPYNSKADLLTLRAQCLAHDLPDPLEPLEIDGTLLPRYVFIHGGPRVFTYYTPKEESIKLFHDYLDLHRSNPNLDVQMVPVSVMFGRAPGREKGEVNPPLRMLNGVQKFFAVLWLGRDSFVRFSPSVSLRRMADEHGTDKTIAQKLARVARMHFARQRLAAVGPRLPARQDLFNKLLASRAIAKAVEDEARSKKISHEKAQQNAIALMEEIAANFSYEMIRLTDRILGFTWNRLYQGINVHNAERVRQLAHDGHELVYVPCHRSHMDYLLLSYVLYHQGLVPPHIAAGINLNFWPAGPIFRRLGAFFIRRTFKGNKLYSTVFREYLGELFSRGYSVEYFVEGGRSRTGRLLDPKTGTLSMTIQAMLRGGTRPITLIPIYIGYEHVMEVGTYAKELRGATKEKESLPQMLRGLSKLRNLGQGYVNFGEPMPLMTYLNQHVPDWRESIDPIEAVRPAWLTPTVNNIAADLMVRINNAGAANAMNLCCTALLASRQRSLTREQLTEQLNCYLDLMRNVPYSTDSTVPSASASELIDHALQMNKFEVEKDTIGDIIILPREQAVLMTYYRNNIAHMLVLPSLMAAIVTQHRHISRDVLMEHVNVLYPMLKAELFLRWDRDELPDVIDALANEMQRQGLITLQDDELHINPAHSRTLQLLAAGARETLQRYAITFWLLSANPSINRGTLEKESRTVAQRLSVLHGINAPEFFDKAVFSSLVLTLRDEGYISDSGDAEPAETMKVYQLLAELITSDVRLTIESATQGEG

FadD = target: T2, FadD (Escherichia coli, UniProt P69451); experiment: in vitro acyl-CoA synthesis, product by LC-MS; format: biochemical
T2 sequence (P69451 1-561): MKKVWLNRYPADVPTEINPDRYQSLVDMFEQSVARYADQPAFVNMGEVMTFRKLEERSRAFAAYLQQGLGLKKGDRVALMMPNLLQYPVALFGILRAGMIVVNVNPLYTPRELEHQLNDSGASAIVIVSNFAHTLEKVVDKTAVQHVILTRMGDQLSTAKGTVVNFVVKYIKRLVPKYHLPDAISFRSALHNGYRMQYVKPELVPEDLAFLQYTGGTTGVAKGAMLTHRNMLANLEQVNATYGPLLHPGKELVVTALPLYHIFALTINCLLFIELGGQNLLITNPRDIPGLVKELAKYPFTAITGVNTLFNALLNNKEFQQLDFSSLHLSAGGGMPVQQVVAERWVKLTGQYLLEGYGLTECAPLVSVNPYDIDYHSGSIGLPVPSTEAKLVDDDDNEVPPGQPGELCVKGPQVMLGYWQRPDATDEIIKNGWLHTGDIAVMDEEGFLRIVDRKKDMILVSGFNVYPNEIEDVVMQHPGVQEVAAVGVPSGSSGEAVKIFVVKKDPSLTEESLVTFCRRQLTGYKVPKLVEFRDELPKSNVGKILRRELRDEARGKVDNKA

purified protein [1] = substrate: O=P(O)(O)OC[C@@H](O)CO; experiment: purified protein; conditions: co-substrate GGPP
purified protein [2] = substrate: O=P(O)(O)OC[C@H](O)CO; experiment: purified protein; conditions: co-substrate GGPP

O=P(O)(O)OC[C@H](O)CO [G3P]
in vitro lyso-phosphatidic acid synthesis, product by LC-MS (PlsB): LPA synthesis was observed only in the presence of G3P

CC(C)(COP(=O)(O)OP(=O)(O)OC[C@H]1O[C@@H](n2cnc3c(N)ncnc32)[C@H](O)[C@@H]1OP(=O)(O)O)[C@@H](O)C(=O)NCCC(=O)NCCS [CoA]
in vitro acyl-CoA synthesis, product by LC-MS (FadD; co-substrate oleic acid): in vitro condensation of oleic acid and CoA to yield acyl-CoA

CCCCCCCC/C=C\CCCCCCCC(=O)O [oleic acid]
in vitro acyl-CoA synthesis, product by LC-MS (FadD; co-substrate CoA): in vitro condensation of oleic acid and CoA to yield acyl-CoA

B1: GGGPS (Methanococcus maripaludis S2) (protein)
chain: MQIKIGEIESKLNKIIEEEGAAYFVLIDPDEKNYREIANHVKDYADAIIIGGSIGIINLDEVTKDIKEITGLPIILFPGNVDGVTKEADAVFFMSLMNSKNTYWNMTAPTLGALTIKKYGLETLPMAYLGIEPISKTAVGFVGEVNEIPQKKPEIAGLYSLSASYFGMRWAYLEAGSGAEYPVSNEMVGISKKLSGINIIVGGGIRTPEVAYEKVMSGADVIVTGTLTEKDPQAVVEMKKAIKKAGLDKLKMLSKK
Km (purified protein [1]): 5.8 ± 1.6 µM
Km (purified protein [2]): 46.7 ± 6 µM
